These results are taken from patent US6022880A, “Substituted pyridylamino indoles” (Hoechst Marion Roussel, Inc., priority 1997, dated 2000).

For experiment [1], the system named is mice (scopolamine induced memory deficit). The experiment in a line: Dark Avoidance Assay (reversal of scopolamine induced memory deficit). To be noted: s.c. It counts as in vivo, mouse. How it is done: Dark Avoidance Assay In this assay mice are tested for their ability to remember an unpleasant stimulus for a period of 24 hours. A mouse is placed in a chamber that contains a dark compartment; a strong incandescent light drives it to the dark compartment, where an electric shock is administered through metal plates on the floor. The animal is removed from the testing apparatus and tested again, 24 hours later, for the ability to remember the electric shock. If scopolamine, an anticholinergic agent that is known to cause memory impairment, is administered before an animal's initial exposure to the test chamber, the animal re-enters the dark compartment shortly after being placed in the test chamber 24 hours later. This effect of scopolamine is blocked by an active test compound, resulting in a greater interval before re-entry into the dark compartment. The results for an active compound are expressed as the percent of a group of animals in which the effect of scopolamine is blocked, as manifested by an increased interval between being placed in the test chamber and re-entering the dark compartment.

Experiment [2] deals with dopamine uptake, rat striatal synaptosomes. The experiment in a line: Inhibition of 3H-Dopamine Uptake in Rat Striatal Synaptosomes. To be noted: 3H-DA 50 nM, read-out: D: Inhibition of dopamine uptake, IC50. In kind it is biochemical, rat (male Wistar). On the procedure:
(D) Inhibition of ^3 H-Dopamine Uptake in Rat Striatal Synaptosomes
This assay is used to show differential drug effects on dopamine uptake versus norepinephrine uptake and to identify therapeutic agents for diseases where the potentiation of dopaminergic activity may be helpful (e.g. Parkinson's Disease).
(§1) A. Animals: Male CR Wistar Rats (100-125 g).
The final desired concentration of ^3 H-DA in the assay is 50 nM. The dilution factor is 0.9. Therefore, the KHBB is made up to contain 55.5 nM [^3 H]-5DA.
5. For most assays, a 1 mM stock solution of the test compound is made up in a suitable solvent and serially diluted such that the final concentration in the assay ranges from 2×10^-8 to 2×10^-5 M. Seven concentrations are used for each assay. Higher or lower concentrations may be used depending on the potency of the compound.
Male Wistar rats are decapitated and the brain rapidly removed. Corpora striata are rapidly removed, weighed and homogenized in 9 volumes of ice-cold 0.32 M sucrose using a Potter-Elvejhem homogenizer. Homogenization should be done with 4-5 up and down strokes at medium speeds to minimize synaptosome lysis. The homogenate is centrifuged at 1000 g for 10 min. at 0-4° C. The supernatant (S1) is decanted and is used for uptake experiments.
(§2) Tubes are incubated at 37° C. under a 95% O2 /5% CO2 atmosphere for 5 minutes. For each assay, 3 tubes are incubated with 20 μl of vehicle at 0° C. in an ice bath. After incubation all tubes are immediately centrifuged at 4000 g for 10 minutes. The supernatant fluid is aspirated and the pellets dissolved by adding 1 ml of solubilizer (Triton X-100+50% EtOH, 1:4 v/v). The tubes are vigorously vortexed, decanted into scintillation vials, and counted in 10 ml of Liquiscint scintillation counting cocktail. Active uptake is the difference between cpm at 37° C. and 0° C. The percent inhibition at each drug concentration is the mean of three determinations. IC50 values are derived from log-probit analysis.

For experiment [3], the system named is serotonin uptake, rat whole brain synaptosomes. The experiment in a line: Inhibition of [3H]-Serotonin Uptake in Rat Whole Brain Synaptosomes. It counts as biochemical, rat (male Wistar). To be noted: [3H]-5HT 50 nM, read-out: C: Inhibition of serotonin uptake, IC50. On the procedure:
(C) Inhibition of [^3 H]-Serotonin Uptake in Rat Whole Brain Synaptosomes
as §1
The final desired concentration of ^3 H-5HT in the assay is 50 nM. The dilution factor is 0.8.
5. For most assays, a 1 mM solution of the test compound is made up in suitable solvent and serially diluted such that the final concentration in the assay ranges from 2×10^-8 to 2×10^-5 M. Seven concentrations are used for each assay.
Male Wistar rats are decapitated and the brain rapidly removed. Whole brain minus cerebella is weighed and homogenized in 9 volumes of ice-cold 0.32 M sucrose using a Potter-Elvejhem homogenizer. Homogenization should be done with 4-5 up and down strokes at medium speeds to minimize synaptosome lysis. The homogenate is centrifuged at 1000 g for 10 min. at 0-4° C. The supernatant (S1) is decanted and is used for uptake experiments.
as §2, with “(Tritor.” for “(Triton”

Experiment [4] relates to norepinephrine uptake, rat whole brain or hypothalamic synaptosomes. Put plainly: Inhibition of [3H]-Norepinephrine Uptake in Rat Whole Brain or Hypothalamic Synaptosomes. In kind it is biochemical, rat (male Wistar). To be noted: [3H]-NE 50 nM, read-out: E: Inhibition of norepinephrine uptake, IC50. How it is done: (E) Inhibition of [^3 H]-Norepinephrine Uptake in Rat Whole Brain or Hypothalamic Synaptosomes
This assay is used as a biochemical screen for potential antidepressants which block norepinephrine uptake.
A. Animals: Male CR Wistar rats (100-125 g).
The final desired concentration of [^3 H]-NE in the assay is 50 nM. The dilution factor is 0.8.
5. For most assays, a 1 mM stock solution of the test compound is made up in a suitable solvent and serially diluted such that the final concentration in the assay ranges from 2×10^-8 to 2×10^-5 M. Seven concentrations are used for each assay.
Male Wistar rats are decapitated and the brain rapidly removed. Either whole brain minus cerebella or hypothalamus is weighed and homogenized in 9 volumes of ice-cold 0.32 M sucrose using a Potter-Elvejhem homogenizer. Homogenization should be done with 4-5 up and down strokes at medium speeds to minimize synaptosome lysis. The homogenate is centrifuged at 1000 g for 10 min. at 0-4° C. The supernatant (S1) is decanted and is used for uptake experiments.
as §2

The target of experiment [5] is T1, MAO-B (Rattus norvegicus, UniProt P19643).
T1 sequence (P19643 1-520): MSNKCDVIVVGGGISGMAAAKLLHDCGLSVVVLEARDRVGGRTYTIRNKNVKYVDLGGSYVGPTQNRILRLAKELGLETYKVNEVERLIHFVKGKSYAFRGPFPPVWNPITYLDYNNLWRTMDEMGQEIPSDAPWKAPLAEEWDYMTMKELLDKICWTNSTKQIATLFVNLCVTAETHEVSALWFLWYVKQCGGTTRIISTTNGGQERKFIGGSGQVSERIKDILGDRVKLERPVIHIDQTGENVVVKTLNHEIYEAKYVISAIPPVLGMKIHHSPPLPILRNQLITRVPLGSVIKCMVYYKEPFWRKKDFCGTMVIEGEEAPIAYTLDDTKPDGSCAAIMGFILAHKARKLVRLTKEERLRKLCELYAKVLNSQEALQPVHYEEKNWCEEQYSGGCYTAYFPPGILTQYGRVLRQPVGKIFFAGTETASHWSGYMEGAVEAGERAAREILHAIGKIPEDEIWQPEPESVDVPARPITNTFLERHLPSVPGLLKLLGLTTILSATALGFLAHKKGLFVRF
The experiment in a line: biochemical. More on the design: species or system rat (male Wistar, whole brain minus cerebellum). The settings on record: substrate [14C]-PEA 200 μM; read-out: Inhibitory Concentration - IC50 MAO-B.
Method: (§3) Inhibition of Type A and Type B Monoamine Oxidase Activity in Rat Brain Synaptosomes
a. β-phenethylamine (PEA) is obtained from Sigma Chemical Company. A 5 mM stock solution is made up in 0.01 N HCl. This is used to dilute the specific activity of the [^14 C]-PEA.
b. β-[ethyl-1-^14 C]-phenethylamine hydrochloride (40-50 mCi/mmol) is obtained from New England Nuclear.
Add 12 μl of [^14 C]-PEA to 2 ml of the 5 mM PEA solution. (Final amine concentration in the assay is 200 μM: see below.)
(§4) Equal amounts of MAO-A (5HT) and MAO-B (PEA) substrates are combined for simultaneously testing both MAO types, i.e. mixed stock solution of 2.5 mM 5HT and 2.5 mM PEA, 40 μl of this mixed solution gives a 200 μM final concentration of each amine in the assay. When testing only one MAO type, the individual 5 mM stock solutions must be diluted 1:1 with distilled water prior to adding 40 μl to the incubation mixture; i.e., same 200 μM final amine concentration.
(§5) Male Wistar rats weighing 150-250 grams were sacrificed and the brains rapidly removed. Whole brain minus cerebellum was homogenized in 30 volumes of ice-cold, phosphate-buffered 0.25 M sucrose, using a Potter-Elvejhem homogenizer. The homogenate was centrifuged at 1000 g for 10 minutes and the supernatant (S1) decanted and recentrifuged at 18,000 g for 20 minutes. The resulting pellet (p2) was resuspended in fresh 0.25 M sucrose and served as the tissue source for mitochondrial MAO.
(§6) Tubes are preincubated for 15 minutes at 37° C. and the assay is started by adding 40 μl of combined substrate ([^3 H]-5HT and [^14 C]-PEA) at 15 second intervals. The tubes are incubated for 30 minutes at 37° C. and the reaction stopped by the addition of 0.3 ml 2N HCl. Tissue blank values are determined by adding the acid before the radioactive substrate. The oxidative products of the reaction are extracted with ethyl acetate/toluene (1:1). 5 ml of this mixture is added to the tubes. The resultant mixture is vortexed for 15 seconds to extract the deaminated metabolites into the organic phase and the latter is allowed to separate from the aqueous phase. The tubes are placed in acetone/dry ice bath to freeze the aqueous layer. When this layer is frozen, the top organic layer is poured into a scintillation vial. 10 ml of Liquiscint is added and the samples are counted using window settings for ^14 C in one channel and ^3 H in the second channel. IC50 values are determined by log-probit analysis.

The target of experiment [6] is T2, MAO-A (Rattus norvegicus, UniProt P21396).
T2 sequence (P21396 1-526): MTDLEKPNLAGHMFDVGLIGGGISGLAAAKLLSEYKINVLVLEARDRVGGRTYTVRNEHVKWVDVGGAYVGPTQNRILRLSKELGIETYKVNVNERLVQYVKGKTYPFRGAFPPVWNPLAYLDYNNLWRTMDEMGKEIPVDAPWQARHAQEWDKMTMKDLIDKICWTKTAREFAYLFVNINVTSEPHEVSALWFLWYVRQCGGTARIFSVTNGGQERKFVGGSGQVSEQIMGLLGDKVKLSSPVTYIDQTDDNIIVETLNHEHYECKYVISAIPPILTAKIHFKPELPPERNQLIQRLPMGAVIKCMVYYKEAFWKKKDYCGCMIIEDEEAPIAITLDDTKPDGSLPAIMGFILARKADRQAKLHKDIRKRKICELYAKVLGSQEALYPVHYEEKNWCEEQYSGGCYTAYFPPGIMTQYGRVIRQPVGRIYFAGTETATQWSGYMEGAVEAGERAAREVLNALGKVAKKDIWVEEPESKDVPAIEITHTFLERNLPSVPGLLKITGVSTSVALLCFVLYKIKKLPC
Put plainly: biochemical. Also noted: species or system rat (male Wistar, whole brain minus cerebellum). The settings on record: substrate [3H]-5HT 200 μM; read-out: Inhibitory Concentration - IC50 MAO-A.
From the text: as §3
To determine the selective inhibition of the two forms of monoamine oxidase (MAO).
Although various methods for measuring MAO activity are available, the described method involves the extraction of the radiolabeled deaminated metabolites of [^3 H]-5HT or [^14 C]-β-phenethylamine. This procedure allows MAO-A and MAO-B activities to be measured either simultaneously or individually (3).
Serotonin creatinine SO4 (5HT) is obtained from Sigma Chemical Company. A 5 mM stock solution is made up in 0.01 N HCl. This is used to dilute the specific activity of the [^3 H]-5HT.
[^3 H]-5-Hydroxytryptamine creatinine SO4 (20-30 Ci/mmol) is obtained from New England Nuclear.
Add 12 μl of [^3 H]-5HT to 2 ml of the 5 mM 5HT solution. (Final amine concentration in the assay is 200 μM: see below.)
as §4, §5, §6

Structures are written as SMILES. Where a name gives a salt, the structure may show the parent alone.

Regarding `Cn1cc(Nc2ccncc2)c2ccccc21.O=C(O)/C=C/C(=O)O` [1-Methyl-3-(4-pyridinylamino)indole fumarate], the “% of Animals with Scopolamine Induced Memory Deficit Reversal” value (“% of Animals” below) in experiment [1] (1 mg/kg of body weight) was found to be 33%; in experiment [1] (3 mg/kg of body weight) it was 29%; in experiment [1] (10 mg/kg of body weight) it was 27%.
Take `CN(c1ccncc1)c1cc2ccccc2s1` [2-(Methyl-4-pyridinylamino)benzo[b]thiophene hydrochloride]: the figures for the IC50 in experiment [2], in experiment [3] and in experiment [4] were 510 nM, 1.15 µM and 78 nM, respectively.
Take `FC(F)(F)c1ccc2c(Nc3ccncc3)csc2c1` [3-(4-Pyridinylamino)-6-trifluoromethylbenzo[b]thiophene hydrochloride]: the IC50 in experiment [5] worked out at 165 µM; in experiment [6] it was 60 µM.
As for `c1ccc2c(Nc3ccncc3)csc2c1` [3-(4-Pyridinylamino)benzo[b]thiophene hydrochloride], the IC50 in experiment [5] was 18 µM; in experiment [6] it was 5.3 µM.
On to `O=C(O)/C=C\C(=O)O.c1ccc2c(Nc3ccncc3)c[nH]c2c1` [3-(4-pyridinylamino)-1H-indole maleate, 3-(4-Pyridinylamino)-1H-indole maleate], for which the “% of Animals” value in experiment [1] (10 mg/kg of body weight) came out at 70%.
In the case of `c1ccc2c(Nc3ccncc3)noc2c1` [3-[(4-pyridinyl)amino]-1,2-benzisoxazole], the results for the IC50 in experiment [5] and in experiment [6] were 3.9 µM and 0.64 µM, respectively.
For the compound `Clc1ccc2c(Nc3ccncc3)c[nH]c2c1` [6-Chloro-3-(4-pyridinylamino)-1H-indole, 6-Chloro-3(4-pyridinylamino)indole], the entries for the “% of Animals” value in experiment [1] (1 mg/kg of body weight), in experiment [1] (3 mg/kg of body weight) and in experiment [1] (10 mg/kg of body weight) were 27%, 20% and 27%, respectively.
Take `Clc1ccc2c(Nc3ccncc3)csc2c1` [6-Chloro-3-(4-pyridinylamino)benzo[b]thiophene hydrochloride]: the IC50 was determined as 51 µM in experiment [5] and 10.5 µM in experiment [6].
Regarding `C=CCN(c1ccncc1)c1csc2cc(Cl)ccc12` [6-Chloro-3-[(2-propenyl)(4-pyridinyl)amino]benzo[b]thiophen hydrochloride], the IC50 in experiment [3] is 0.12 µM; in experiment [4] it was 7 nM.
As for `Clc1ccc2c(Nc3ccncc3)noc2c1` [6-Chloro-3-[(4-pyridinyl)amino]-1,2-benzisoxazole maleate], the figures for the IC50 in experiment [5] and in experiment [6] were 51 µM and 2.8 µM, respectively.
For `Clc1ccc2c(N(CC3CC3)c3ccncc3)csc2c1` [6-Chloro-3-[(cyclopropylmethyl)(4-pyridyl)amino]benzo[b]thiophen hydrochloride], the figures for the IC50 in experiment [3] and in experiment [4] were 0.12 µM and 12 nM, respectively.
Turning to `COc1ccc2c(Nc3ccncc3)csc2c1` [6-Methoxy-3(4-pyridinylamino)benzo[b]thiophene hydrochloride], the results for the IC50 in experiment [5] and in experiment [6] were 17 µM and 3.2 µM, respectively.
As for `CCCN(c1ccncc1)c1csc2cc(OC)ccc12` [6-Methoxy-3-(propyl-4-pyridinylamino)benzo[b]thiophene hydrochloride], the IC50 turned out to be 205 µM in experiment [5] and 182 µM in experiment [6].
For the compound `CN(C)CCC=C1c2ccccc2CCc2ccccc21` [Amitriptyline, reference compound], the IC50 in experiment [2] was more than 20000 nM; in experiment [4], 7700 nM.
On to `O=C1CC2(CCCC2)CC(=O)N1CCCCN1CCN(c2ncccn2)CC1` [Buspirone], for which the IC50 in experiment [2] is more than 20000 nM.
Turning to `CN(C)CCCN1c2ccccc2CCc2ccc(Cl)cc21` [Chloripramine, reference compound], the IC50 in experiment [2] is more than 20000 nM; in experiment [4], 18600 nM.
On the same counts, the results for `CN1CCN(C2=Nc3cc(Cl)ccc3Nc3ccccc32)CC1` [Clozapine, reference compound] are more than 20000 nM and more than 20000 nM.
Regarding `CC[C@@H]1C(=O)OC[C@@H]1Cc1cncn1C` [Pilocarpine, reference compound], in experiment [1] (5.0 mg/kg of body weight), the “% of Animals” value is recorded as 13%.
For `Nc1c2c(nc3ccccc13)CCCC2` [Tacrine, reference compound], the “% of Animals” value in experiment [1] (0.63 mg/kg of body weight) was 13%.
